Values of other authors as cited in patent US6670388B1, “Fatty acid synthase inhibitors” (SmithKline Beecham Corporation, priority 2000, dated 2003).

Columns and labels:
bacteria = details: in vivo and in vitro
[1] = tested on: all three condensing enzymes

Structure (SMILES) | inhibition of FabB & F (FabB & F) | antibacterial activity (bacteria) | inhibition of mammalian FASs (mammalian FASs) | inhibition of condensing enzymes [1]
C/C=C/C/C=C/CCC(=O)[C@H]1O[C@H]1C(N)=O [cerulenin] | potent inhibitor of FabB & F | bactericidal | – | –
C=C/C(C)=C/[C@@]1(C)SC(=O)C(C)=C1O [thiolactomycin] | – | broad-spectrum antibacterial activity both in vivo and in vitro | does not inhibit mammalian FASs | specifically inhibit all three condensing enzymes
